Laboratory results: patent publication US11931404B2, “Use of ultrarapid acting insulin” (MannKind Corporation, priority 2014, dated 2024)

Experiments:
[1] = test system: subjects with type 2 diabetes; test: Meal challenge test, Original Protocol (OP): blood glucose, endogenous glucose production, glucose disappearance; type: in vivo, human; details: 45 U insulin-FDKP, 12 U sc lispro, 4 mg EXUBERA, FIG. 6
Procedure: The insulin-FDKP formulation is administered to the subjects by oral inhalation using a MEDTONE® dry powder inhaler (MannKind Corp.). Methods and results below are described in terms of the Original Protocol (OP), which includes the meal challenge in 18 subjects with three treatments (EXUBERA®, lispro and TI) and Amendment 1 (A1), which includes 12 subjects treated with only TI and lispro. […] The subjects were screened and evaluated before, during and after the experiments and their data analyzed as described below. Subjects were selected based on several key inclusion criteria, including, male and female, having ≥18 and ≤70 years of age with clinical diagnosis of type 2 diabetes mellitus for 12 months. […] Blood glucose concentrations were measured at regular intervals from arterialized venous blood samples. […] EGP was determined by measurement of 6,6-^2H2 glucose applying the modified calculations for the non-steady state ([…], and D. T. Stein. Calculating glucose fluxes during meal tolerance test: a new computational approach. Am.J.Physiol Endocrinol.Metab 293 (2):[…]-[…], 2007). C-peptide concentrations were measured pre- and post-dose to assess endogenous insulin secretion. In addition, glucagon and free fatty acid concentrations were also determined.

[2] = test system: subjects with type 2 diabetes; test: Meal challenge test, Amendment 1 (A1): blood glucose, endogenous glucose production, glucose disappearance; type: in vivo, human; details: 60 U and 90 U insulin-FDKP groups, 10 U lispro, FIG. 11
Procedure: Following the completion of the meal challenge, the data was analyzed as per the statistical analysis plan. […] The study was amended (A1) and included 12 subjects (10 were reenrolled from the first meal challenge), and only two treatments, which were 10 U lispro and 60 and 90 U TI. The doses were selected based on the relative bioavailability observed following the first meal challenge (OP), where under an assumption of linear kinetics, 10 U lispro and 60 U TI would result in similar exposure. The 90 U dose group was included to assess the effect of the highest dose group of TI studied in Phase 3 trials. Six of the 12 subjects received 60 U TI and the other 6 subjects received 90 U TI. All 12 subjects received 10 U lispro in a crossover fashion. Methods and results below are described in terms of the Original Protocol (OP), which includes the meal challenge in 18 subjects with three treatments (EXUBERA®, lispro and TI) and Amendment 1 (A1), which includes 12 subjects treated with only TI and lispro. […] The subjects were screened and evaluated before, during and after the experiments and their data analyzed as described below. […] Blood glucose concentrations were measured at regular intervals from arterialized venous blood samples. […]

## insulin lispro
[1]
  time at which glucose disappearance rate peaked after dosing: about 120 minutes
[2]
  time at which glucose disappearance rate peaked after dosing: about 100 minutes
